Source: publication PMC6576746, “Rational discovery of dual-indication multi-target PDE/Kinase inhibitor for precision anti-cancer therapy using structural systems pharmacology” (PLoS Computational Biology, 2019)

How the values were obtained:
Assay in all cases: cells
Design in all cases: species or system panel of human cancer cell lines; Eurofins OncoPanel proliferation; nuclei count by high-content fluorescence imaging, 10-point dose response
A101D = settings: Homo sapiens, A101D, 72 h, cell count, 3 days
Method: (§1) OncoPanel cancer cell proliferation assay was performed by Eurofins Panlabs, Inc. (Missouri, USA). Cancer cells were grown in RPMI 1640, 10% FBS, 2 mM L-alanyl-L-glutamine, 1 mM Na pyruvate, or a special medium. Cells were seeded into 384-well plates and incubated in a humidified atmosphere of 5% CO2 at 37°C. Compounds were added the day following cell seeding. At the same time, a time zero untreated cell plate was generated. After a 3-day incubation period, cells were fixed and stained to allow fluorescence imaging of nuclei. Levosimendan was serially diluted in half-log steps from 100 μM and assayed over 10 concentrations with a maximum assay concentration of 0.1% DMSO. Automated fluorescence microscopy was carried out using a Molecular Devices ImageXpress Micro XL high-content imager, and images were collected with a 4X objective. 16-bit TIFF images were acquired and analyzed with MetaXpress 5.1.0.41 software. Cell count EC50 is the test concentration at the curve inflection point (parameter C), or half the effective response. IC50 is the test compound concentration at 50% of the maximum possible response. GI50 is the concentration needed to reduce the observed growth by half (midway between the relative cell count at the curve maximum and at the time of compound addition). Activity area is an estimate of the integrated area above the response curve. Activity area values range from 0–10, where a value of zero indicates no inhibition of proliferation at all concentrations, and a value of 10 indicates complete inhibition of proliferation at all concentrations.

BT20 = settings: Homo sapiens, BT-20, 72 h, cell count, 3 days
Method: as §1

DOHH-2 = settings: Homo sapiens, DOHH-2, 72 h, cell count, 3 days
Method: as §1

Daoy = settings: Homo sapiens, Daoy, 72 h, cell count, 3 days
Method: as §1

HLE = settings: Homo sapiens, HLE, 72 h, cell count, 3 days
Method: as §1

HepG2 = settings: Homo sapiens, HepG2, 72 h, cell count, 3 days
Method: as §1

J-RT3-T3-5 = settings: Homo sapiens, J-RT3-T3-5, 72 h, cell count, 3 days
Method: as §1

JEG-3 = settings: Homo sapiens, JEG-3, 72 h, cell count, 3 days
Method: as §1

MCF7 = settings: Homo sapiens, MCF7, 72 h, cell count, 3 days
Method: as §1

MES-SA = settings: Homo sapiens, MES-SA, 72 h, cell count, 3 days
Method: as §1

NCI-H520 = settings: Homo sapiens, NCI-H520, 72 h, cell count, 3 days
Method: as §1

RL95-2 = settings: Homo sapiens, RL95-2, 72 h, cell count, 3 days
Method: as §1

SNU-1 = settings: Homo sapiens, SNU1, 72 h, cell count, 3 days
Method: as §1

SW954 = settings: Homo sapiens, SW 954, 72 h, cell count, 3 days
Method: as §1

[1] = 50% of maximum possible response

## C[C@@H]1CC(=O)NN=C1c1ccc(NN=C(C#N)C#N)cc1 [levosimendan]
A101D; [1]
  IC50: 34.8 µM
A101D; corrected for time zero
  GI50: 26.6 µM
A101D; curve inflection point
  EC50: 34.8 µM
BT20; [1]
  IC50: > 100 µM
BT20; corrected for time zero
  GI50: 64.2 µM
BT20; curve inflection point
  EC50: > 100 µM
DOHH-2; [1]
  IC50: 15.8 µM
DOHH-2; corrected for time zero
  GI50: 14.4 µM
DOHH-2; curve inflection point
  EC50: 15.8 µM
Daoy; [1]
  IC50: 16.7 µM
Daoy; corrected for time zero
  GI50: 13 µM
Daoy; curve inflection point
  EC50: 16.7 µM
HLE; [1]
  IC50: 26.5 µM
HLE; corrected for time zero
  GI50: 24.3 µM
HLE; curve inflection point
  EC50: 25.2 µM
HepG2; [1]
  IC50: 42.1 µM
HepG2; corrected for time zero
  GI50: 36.7 µM
HepG2; curve inflection point
  EC50: 42.1 µM
J-RT3-T3-5; [1]
  IC50: 24.4 µM
J-RT3-T3-5; corrected for time zero
  GI50: 18.4 µM
J-RT3-T3-5; curve inflection point
  EC50: 24.4 µM
JEG-3; [1]
  IC50: 30.5 µM
JEG-3; corrected for time zero
  GI50: 25.6 µM
JEG-3; curve inflection point
  EC50: 30.5 µM
MCF7; [1]
  IC50: 32.4 µM
MCF7; corrected for time zero
  GI50: 19 µM
MCF7; curve inflection point
  EC50: 16.1 µM
MES-SA; [1]
  IC50: 15.6 µM
MES-SA; corrected for time zero
  GI50: 13.7 µM
MES-SA; curve inflection point
  EC50: 15.6 µM
NCI-H520; [1]
  IC50: > 100 µM
NCI-H520; corrected for time zero
  GI50: > 100 µM
NCI-H520; curve inflection point
  EC50: > 100 µM
RL95-2; [1]
  IC50: 21.1 µM
RL95-2; corrected for time zero
  GI50: 10.4 µM
RL95-2; curve inflection point
  EC50: 19 µM
SNU-1; [1]
  IC50: 6.31 µM
SNU-1; corrected for time zero
  GI50: 5.53 µM
SNU-1; curve inflection point
  EC50: 5.52 µM
SW954; [1]
  IC50: 22.5 µM
SW954; corrected for time zero
  GI50: 20.5 µM
SW954; curve inflection point
  EC50: 22 µM
